Among the data in ChEMBL document CHEMBL3507680, “University of Dundee, Gates Library screen for HepG2 cell viability” are cytotoxicity values, retold here.

Molecules are shown by their SMILES.

This data set in a line: Human HepG2 cell viability assay in 384 well format. The note with it: HepG2 cells, read-out: Inhibition. It is filed as toxicity, cell-based. Further details: dose 125 nL, time 70.5 hour; cytotoxicity at 70.5 h: concentration not given beside the values.
Turning to `CCc1cc(NCCc2cnccn2)n2nc(C)c(C)c2n1`, the cytotoxicity at 70.5 h was -5.77%.
Regarding `Cc1nc(C)c(C(=O)N2CCc3[nH]nc(COc4ccccc4)c3C2)s1`, the cytotoxicity at 70.5 h was -1.76%.
The same measure for `Cc1cc(CN2CCC(CNC(=O)c3cnc(C)nc3C)C2)[nH]n1` (centres undefined): 7.59%; for `CC(=O)c1cc(C(=O)N2CC[C@@H]3CC[C@H](C2)N3C)c(=O)[nH]c1C`: 22.4%.
Consider `CN1CCCN(C(=O)c2csc3nc(-c4ccc(Cl)cc4)cn23)CC1`, for which the cytotoxicity at 70.5 h was -23%.
As for `CCCc1nc(CNC(=O)Cc2csc(C)n2)cs1`, the cytotoxicity at 70.5 h stood at 0.825%.
The same measure for `Cc1c(CN2CCC(C(=O)O)(n3ccnc3)CC2)oc2ccccc12`: -7.33%; for `CC(C)Oc1cccc(CN2CCC(C(C)N3CCOCC3)CC2)c1` (centres undefined): -8.8%.
Turning to `COc1ccc([C@@H]2CN(c3cnccn3)C[C@H]2N(C)C)cc1`, the cytotoxicity at 70.5 h was determined as 22%.
For the compound `CCCn1ncc(CN(Cc2ccsc2)Cc2ccco2)c1C`, the cytotoxicity at 70.5 h is -6%.
For the compound `CN(CCSc1ccccc1)C(=O)C(c1cccnc1)N1CCOCC1` (centres undefined), the cytotoxicity at 70.5 h was 33.5%.
Turning to `CCNc1ncc(C(=O)N2CCC(c3ccccc3C(=O)O)C2)cn1` (centres undefined), the cytotoxicity at 70.5 h came out at 2.76%.
Turning to `CCc1cn[nH]c1C1CCCN(C(=O)c2noc(C)c2COC)C1` (centres undefined), the cytotoxicity at 70.5 h was -10.2%.
The same measure for `CN(C)C(=O)c1ccc(C2CCCN2C(=O)c2cccc3c2OCC3)s1` (centres undefined): -6.24%; for `Cc1ccc(CN2CCN(C(=O)c3ccccc3O)C(C)C2=O)cc1` (centres undefined): -18.7%; for `CCNC(=O)N1CCCC(C(=O)c2cccc(OC(C)C)c2)C1` (centres undefined): -6.88%.
`O=C1CCC2(CCNCC2)CN1Cc1nncn1CCc1ccccc1`: the cytotoxicity at 70.5 h was -8.25%.
As to `Cc1cnc(C)c(N2CCN(CCCc3ccncc3)CC2)n1`, the cytotoxicity at 70.5 h worked out at 6.37%.
The same measure for `Cc1cc(C[C@@H]2COC[C@@H]2NC(=O)CN2CCOC2=O)on1`: -7.96%; for `CCc1[nH]c2ccc(CNC(=O)Cc3c(C)nc(N)nc3C)cc2c1C`: 1.33%; for `CN1CCC(Cc2noc(-c3cn(Cc4ccc(F)cc4)nn3)n2)CC1`: -3.72%.
The same measure for `CCN1CC(C(=O)NCCn2cccc2)CCC1=O` (centres undefined): -7.13%.
With `Cc1ccc(CCNC(=O)CC2COCCN2S(=O)(=O)N(C)C)s1` (centres undefined), the cytotoxicity at 70.5 h is -11%.
Regarding `COc1cc(CN2CCCC2)ccc1Oc1ccc2c(c1)CC(CN)O2` (centres undefined), the cytotoxicity at 70.5 h came to 1.9%.
Consider `Cc1cnn(CC(=O)N2CCC3(CCC(=O)N(CC(C)O)C3)CC2)c1` (centres undefined), for which the cytotoxicity at 70.5 h is -5.26%.
The same measure for `O=C(CCc1nc(Cl)n[nH]1)N[C@H]1CC[C@H]1NC1Cc2ccccc2C1`: -9.72%; for `CN(C)C[C@@H]1CN(C2CCN(c3ccc(Cl)cc3)CC2)C[C@@H]1CO`: -10.6%; for `COc1nc2c(cc1C(=O)N1C[C@@H](N)C[C@H]1C(=O)NC(C)C)CCC2`: -2.39%.
On to `CN1CCCC2(CCN(C(=O)Cc3cc4c(cc3Cl)OCCO4)C2)C1=O` (centres undefined), for which the cytotoxicity at 70.5 h is -2.31%.
As for `O=C(Cc1cnccn1)N1CCC(c2nccn2CC2CC2)CC1`, the cytotoxicity at 70.5 h was determined as 31.6%.
The same measure for `CC(c1ccco1)N(C)Cc1cc2cc3c(cc2[nH]c1=O)OCO3` (centres undefined): -8.06%; for `O=C(Cc1cccc(O)c1)N1CCC2(CC1)c1ccccc1CC2O` (centres undefined): -11.7%; for `CC(O)CN1CCc2onc(C(c3ccccc3)c3ccccc3)c2C1` (centres undefined): -10%.
As for `COCCS(=O)(=O)c1ncc(CN(C)CC(C)C)n1Cc1ccccc1`, the cytotoxicity at 70.5 h is -1.85%.
The same measure for `O=C(Cn1c(=O)oc2ccccc21)N1Cc2cnn(CCO)c2C1`: -2.5%; for `Cc1oc(-c2cccc(F)c2)nc1CN1CCOCS1(=O)=O`: -11.9%.
As to `Cc1cc(C)c2nc(CN3CCC(CN)C3)cc(O)c2c1` (centres undefined), the cytotoxicity at 70.5 h was 6.13%.
For the compound `COCCCC1CCCCN1Cc1cn2cc(C)ccc2n1` (centres undefined), the cytotoxicity at 70.5 h is -25.8%.
As for `Cc1ccccc1-n1cc(-c2ccnc(NC(CO)C(C)C)n2)cn1` (centres undefined), the cytotoxicity at 70.5 h was -7.36%.
Turning to `CN1CCCN(c2nccc(-c3cc(C(=O)O)ccn3)n2)CC1`, the cytotoxicity at 70.5 h turned out to be 24.6%.
For `Cc1cc(C)n(NC(=O)c2cccc3c2OCC3)c(=O)c1`, the cytotoxicity at 70.5 h was -6.18%.
The same measure for `O=C(Nc1ccc(F)cc1)C1CNCCN1C(=O)CCO` (centres undefined): 8.54%; for `C=C1C(C)(C)[C@H]2CC[C@]1(C(=O)N1CCC(n3cc(CO)nn3)CC1)C2`: -7.81%.
In the case of `CCN(Cc1cccc(C(=O)Nc2cn(C)nn2)c1)[C@H]1COC[C@@H]1O`, the cytotoxicity at 70.5 h was -5.22%.
Consider `Cc1cc(C(F)(F)F)nc(CNC(=O)CCC2CCCCN2C)n1` (centres undefined), for which the cytotoxicity at 70.5 h was 0.421%.
For `CCCN(CC)c1cc(C2CCNCC2)nc(C)n1`, the cytotoxicity at 70.5 h came to 26.5%.
Consider `COc1ccc(-c2nccn2CC(O)CN2CCCC2)c(F)c1` (centres undefined), for which the cytotoxicity at 70.5 h stood at 28.4%.
`Cn1ccnc1C1c2nc[nH]c2CCN1Cc1cccnc1` (centres undefined): the cytotoxicity at 70.5 h was -5.94%.
As to `CCn1ccnc1CN(C)C(=O)Cn1ccc2ccccc2c1=O`, the cytotoxicity at 70.5 h was -10.4%.
`CN(Cc1n[nH]c2c1CCC2)C(=O)CCc1cc2n(n1)CCCNC2`: the cytotoxicity at 70.5 h was -12.8%.
The same measure for `COc1ccc(C(O)CNC(=O)NCCc2csc(C)n2)cc1` (centres undefined): -4.45%; for `Cc1ccc(-c2cc(CNC(=O)N3CCSCC3)on2)cc1`: -1.58%; for `Cc1nc(CNC(=O)NCC(O)c2ccc(F)cc2)cs1` (centres undefined): -3.15%.
With `Cc1csc(N2CCCN(C(=O)Cn3cncn3)CC2)n1`, the cytotoxicity at 70.5 h is -2.46%.
Turning to `Cc1csc(N2CCCN(C(=O)C(C)n3cncn3)CC2)n1` (centres undefined), the cytotoxicity at 70.5 h came out at 1.24%.
On to `CCc1nc(C2CCCN(C(=O)c3ccccc3F)C2)no1` (centres undefined), for which the cytotoxicity at 70.5 h was -2.67%.
`COCCN1CCN(CCCS(=O)(=O)N(C)C)CC1C` (centres undefined): the cytotoxicity at 70.5 h is -2.19%.
With `CCS(=O)(=O)c1ccccc1N1CCC(N)CC1`, the cytotoxicity at 70.5 h was -3.9%.
In the case of `CC(=O)N1CCCN(C(=O)c2ccc(=O)n(C)c2)c2ccccc21`, the cytotoxicity at 70.5 h was -2.79%.
For the compound `O=C(c1nn(-c2ccccc2F)cc1O)N1CCCSCC1`, the cytotoxicity at 70.5 h was 2.69%.
Take `Cn1cc(C(=O)N2CCSc3ccccc32)ccc1=O`: the cytotoxicity at 70.5 h was found to be 3.72%.
With `O=C(c1nn(-c2ccccc2F)cc1O)N1CCC2(CC1)OCCO2`, the cytotoxicity at 70.5 h came out at 13.2%.
Consider `CCc1nc(CN(C)C2CCN(CC(=O)N3CCOCC3)C2)no1` (centres undefined), for which the cytotoxicity at 70.5 h is -1.36%.
As for `CC(=O)N(Cc1noc(C2CC2)n1)C1CCN(CC2CCOCC2)C1` (centres undefined), the cytotoxicity at 70.5 h was 22.1%.
As to `CN(Cc1noc(C2CC2)n1)C1CCN(CC(=O)N2CCOCC2)C1` (centres undefined), the cytotoxicity at 70.5 h is -3.02%.
Turning to `CCc1nc(C2CCCN2C(=O)CCc2c(C)noc2Cl)no1` (centres undefined), the cytotoxicity at 70.5 h was -3.77%.
For `COc1ccc(NC(=O)CCn2nc(-c3cccs3)oc2=O)cc1OC`, the cytotoxicity at 70.5 h is -5.48%.
Regarding `COc1cc(NC(=O)CCn2nc(-c3cccs3)oc2=O)cc(OC)c1`, the cytotoxicity at 70.5 h was -7.55%.
For `N#Cc1cccc(NC(=O)CCn2nc(-c3cccs3)oc2=O)c1`, the cytotoxicity at 70.5 h is -11%.
Regarding `O=C(C1CCCN1Cc1nc(-c2ccco2)no1)N1CCSCC1` (centres undefined), the cytotoxicity at 70.5 h was -5.08%.
As to `COc1cc(C(=O)NS(=O)(=O)c2cccc(C#N)c2)cc(OC)c1Br`, the cytotoxicity at 70.5 h was -6.73%.
Regarding `CC(C)c1ncncc1C(=O)N1CCN(Cc2ccccn2)CC1`, the cytotoxicity at 70.5 h is -7.1%.
In the case of `CC(C)c1ncncc1C(=O)N1CCN(Cc2ccsc2)CC1`, the cytotoxicity at 70.5 h was -10.1%.
Regarding `O=C1NCCN1C1CCN(Cc2coc(-c3ccc(F)cc3)n2)CC1`, the cytotoxicity at 70.5 h was -2.32%.
`CCc1nnc2n1CCN(Cc1csc(NC(C)=O)n1)C2`: the cytotoxicity at 70.5 h is -3.38%.
For `COc1ncccc1CNC(=O)NC1CCCOc2ccccc21` (centres undefined), the cytotoxicity at 70.5 h is -4.36%.
As for `CC(=O)Nc1nc(CN2CCn3c(C)nnc3C2)cs1`, the cytotoxicity at 70.5 h is -2.82%.
For the compound `CS(=O)(=O)NC(=O)c1nnn(-c2ccccc2)c1C1CC1`, the cytotoxicity at 70.5 h was -5.6%.
Regarding `O=C(N1CCCC(n2cncn2)C1)C1(c2ccc(Cl)cc2)CCC1` (centres undefined), the cytotoxicity at 70.5 h is -7.28%.
On to `O=C(N1CCCC(n2cncn2)C1)C1(c2cccc(F)c2)CC1` (centres undefined), for which the cytotoxicity at 70.5 h is -7.31%.
On to `O=C(N1CCCC(n2cncn2)C1)C1(c2ccccc2F)CCCC1` (centres undefined), for which the cytotoxicity at 70.5 h is -5.6%.
As to `Cc1nc(CN(C)C2CCN(CCC(=O)N3CCOCC3)C2)no1` (centres undefined), the cytotoxicity at 70.5 h was found to be 15.9%.
Turning to `Cc1ccc(-c2nc(CN3CCC(N4CCNC4=O)CC3)co2)cc1`, the cytotoxicity at 70.5 h is -0.587%.
Turning to `O=C1NCCN1C1CCN(Cc2coc(-c3ccccc3)n2)CC1`, the cytotoxicity at 70.5 h came to 20.6%.
Turning to `O=C(c1ccc2c(c1)CCCC2)N1CCCC(n2cncn2)C1` (centres undefined), the cytotoxicity at 70.5 h is -4.56%.
The same measure for `O=C(CCc1cccs1)N1CCCC1c1noc(C2CC2)n1` (centres undefined): -6.44%.
The same measure for `COc1cc(C(=O)N2CCCC(n3cncn3)C2)ccc1C` (centres undefined): -8.45%; for `CCc1nc(C2CCCN2C(=O)CCc2cscn2)no1` (centres undefined): -4.03%.
Regarding `CCc1nc(C2CCCN2C(=O)Cc2cccs2)no1` (centres undefined), the cytotoxicity at 70.5 h was -8.42%.
`c1ccc2oc(CCCN3CCCC(Cn4cncn4)C3)nc2c1` (centres undefined): the cytotoxicity at 70.5 h stood at 19.8%.
The same measure for `CCc1noc(CN2CCN(C(=O)c3ccccc3F)CC2)n1`: 29.8%.
The same measure for `CC(C)Cc1noc(CN2CCN(C(=O)c3ccccc3F)CC2)n1`: 13.7%.
For the compound `CC(C)c1noc(CN2CCN(C(=O)c3ccc(F)cc3)CC2)n1`, the cytotoxicity at 70.5 h was -3.61%.
For `CC(NC(=O)Cc1cccs1)c1nnc2n1CCC2` (centres undefined), the cytotoxicity at 70.5 h is -7.18%.
Consider `CC(NC(=O)CCC(=O)c1cccs1)c1nnc2n1CCC2` (centres undefined), for which the cytotoxicity at 70.5 h was -3.09%.
As to `Cc1cccc(CN2CCN(C(=O)c3cc(C4CC4)[nH]n3)CC2)c1`, the cytotoxicity at 70.5 h is -4.75%.
On to `O=C(c1cc(C2CC2)[nH]n1)N1CCN(Cc2ccncc2)CC1`, for which the cytotoxicity at 70.5 h is -11.9%.
With `O=C(NCCNc1ncccn1)C1CCN(C(=O)NC2CC2)CC1`, the cytotoxicity at 70.5 h is -4.22%.
For the compound `CC(C)(C)OC(=O)N1CCC(C(=O)NCCNc2ncccn2)CC1`, the cytotoxicity at 70.5 h was -7.43%.
